# Results as given in article PMC9942120 (iScience, 2023).
# Columns and labels:
# UBE2O = biological target: T1, UBE2O (Homo sapiens, UniProt Q9C0C9); assay: direct LC-MS/MS profiling of modified tryptic peptides; assay type: cell-based; details: covalent at Cys370; H358 cells, […] AMG510, […] h (methods print […] h)
# T1 sequence (Q9C0C9 1-1292): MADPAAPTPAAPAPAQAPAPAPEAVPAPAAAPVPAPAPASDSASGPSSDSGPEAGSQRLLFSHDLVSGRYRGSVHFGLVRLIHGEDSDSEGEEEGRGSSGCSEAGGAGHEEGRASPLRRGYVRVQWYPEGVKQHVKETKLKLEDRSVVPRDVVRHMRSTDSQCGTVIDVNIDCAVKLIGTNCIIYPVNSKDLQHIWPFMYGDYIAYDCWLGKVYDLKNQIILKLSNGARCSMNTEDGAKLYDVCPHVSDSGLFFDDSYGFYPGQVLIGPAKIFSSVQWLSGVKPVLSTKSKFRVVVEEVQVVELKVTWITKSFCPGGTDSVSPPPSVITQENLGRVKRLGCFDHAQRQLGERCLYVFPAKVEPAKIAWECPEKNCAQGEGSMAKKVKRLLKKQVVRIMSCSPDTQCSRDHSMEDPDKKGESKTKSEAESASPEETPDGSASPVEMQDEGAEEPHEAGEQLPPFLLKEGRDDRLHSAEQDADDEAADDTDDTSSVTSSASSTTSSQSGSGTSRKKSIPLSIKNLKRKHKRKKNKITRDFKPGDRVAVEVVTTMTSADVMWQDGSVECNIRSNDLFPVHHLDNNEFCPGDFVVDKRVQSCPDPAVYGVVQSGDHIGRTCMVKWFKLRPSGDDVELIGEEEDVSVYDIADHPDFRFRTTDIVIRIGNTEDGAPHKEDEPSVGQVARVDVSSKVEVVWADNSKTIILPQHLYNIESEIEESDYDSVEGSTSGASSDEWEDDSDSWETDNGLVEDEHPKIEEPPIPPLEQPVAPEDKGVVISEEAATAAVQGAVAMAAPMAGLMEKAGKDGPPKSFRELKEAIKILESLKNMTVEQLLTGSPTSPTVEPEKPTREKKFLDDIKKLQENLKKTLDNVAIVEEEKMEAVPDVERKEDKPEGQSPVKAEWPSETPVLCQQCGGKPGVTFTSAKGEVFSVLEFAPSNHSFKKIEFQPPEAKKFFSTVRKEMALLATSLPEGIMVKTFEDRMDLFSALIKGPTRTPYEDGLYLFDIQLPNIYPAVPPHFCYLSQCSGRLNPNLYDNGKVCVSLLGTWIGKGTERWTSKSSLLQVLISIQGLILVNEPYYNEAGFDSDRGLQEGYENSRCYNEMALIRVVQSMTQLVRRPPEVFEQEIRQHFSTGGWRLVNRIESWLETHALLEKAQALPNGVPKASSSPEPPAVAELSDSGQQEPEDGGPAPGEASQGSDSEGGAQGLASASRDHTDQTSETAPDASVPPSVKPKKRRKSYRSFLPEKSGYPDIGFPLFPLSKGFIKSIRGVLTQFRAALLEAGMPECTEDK
# RTN4 = biological target: T2, RTN4 (Homo sapiens, UniProt Q9NQC3); assay: as above; assay type: cell-based; details: covalent at Cys1101; H358 cells, […] AMG510, […] h (methods print […] h)
# T2 sequence (Q9NQC3 1-1192): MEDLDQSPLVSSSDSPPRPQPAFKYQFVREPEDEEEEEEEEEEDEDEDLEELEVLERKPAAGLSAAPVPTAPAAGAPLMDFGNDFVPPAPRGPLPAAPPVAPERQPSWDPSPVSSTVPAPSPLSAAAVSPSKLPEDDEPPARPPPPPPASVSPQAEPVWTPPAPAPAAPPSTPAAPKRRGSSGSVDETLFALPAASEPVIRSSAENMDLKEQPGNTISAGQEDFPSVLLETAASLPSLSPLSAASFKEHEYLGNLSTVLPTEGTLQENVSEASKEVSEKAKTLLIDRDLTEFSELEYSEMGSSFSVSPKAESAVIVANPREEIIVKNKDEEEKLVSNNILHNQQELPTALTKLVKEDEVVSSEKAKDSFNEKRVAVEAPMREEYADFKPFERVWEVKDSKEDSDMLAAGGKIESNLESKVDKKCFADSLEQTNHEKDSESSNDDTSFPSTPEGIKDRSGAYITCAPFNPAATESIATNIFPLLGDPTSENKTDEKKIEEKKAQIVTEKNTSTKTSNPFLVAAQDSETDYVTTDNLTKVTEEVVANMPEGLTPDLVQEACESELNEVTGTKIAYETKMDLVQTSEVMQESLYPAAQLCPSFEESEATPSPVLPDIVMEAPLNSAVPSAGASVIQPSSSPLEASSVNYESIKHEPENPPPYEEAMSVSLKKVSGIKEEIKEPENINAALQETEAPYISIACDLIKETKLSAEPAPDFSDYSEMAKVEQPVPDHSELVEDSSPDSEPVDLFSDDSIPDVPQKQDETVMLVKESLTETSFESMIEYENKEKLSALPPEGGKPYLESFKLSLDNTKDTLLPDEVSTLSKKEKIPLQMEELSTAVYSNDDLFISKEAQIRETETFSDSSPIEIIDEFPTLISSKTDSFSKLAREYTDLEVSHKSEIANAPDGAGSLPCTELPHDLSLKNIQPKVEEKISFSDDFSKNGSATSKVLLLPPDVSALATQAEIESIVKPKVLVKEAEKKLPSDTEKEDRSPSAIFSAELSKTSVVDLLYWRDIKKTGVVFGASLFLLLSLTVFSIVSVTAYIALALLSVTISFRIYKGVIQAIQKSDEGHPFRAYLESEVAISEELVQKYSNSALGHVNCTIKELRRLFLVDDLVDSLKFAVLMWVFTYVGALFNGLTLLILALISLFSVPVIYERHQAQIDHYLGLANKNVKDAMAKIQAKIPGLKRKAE
structure (smiles),measurement,setting,value
C=CC(=O)N1CCN(c2nc(=O)n(-c3c(C)ccnc3C(C)C)c3nc(-c4c(O)cccc4F)c(F)cc23)[C@@H](C)C1 [AMG510],direct LC-MS/MS profiling of modified tryptic peptides,UBE2O,"They included enzymes (PLOD3 C691, RPE C5, SPTLC2 C99, UBE2O C370, and TK1 C3)"
same,direct LC-MS/MS profiling of modified tryptic peptides,RTN4,off-targets that were identified in previous studies (RTN4 C1101 and HMOX2 C282)
